Results reported in patent US11214803B2, “Modulators of YAP1 expression” (Ionis Pharmaceuticals, Inc., priority 2019, dated 2022).
pIC50: −log10 of the molar value. Strand notation (5' to 3'): a small letter for the sugar, then the base; units joined by * are phosphorothioate-linked, units joined directly phosphodiester-linked; [ ] holds rarer units or linkages, { } end groups; capitals alone tell only the bases. k = constrained ethyl (cEt); [5mC] = 5-methylcytosine; d = 2'-deoxy (DNA)

Tests used:
Yap1 mRNA [1] = test: Antisense inhibition of human Yap1 in A-431 cells by cEt gapmers, single dose (Example 3, RTS36584); type: cell-based
How it was run: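 Single-dose free-uptake screen of 3-10-3 cEt gapmers in A-431 cells at 2,000 nM over about 48 h. Values are % untreated control Yap1 mRNA.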

Yap1 mRNA [2] = test: Dose-dependent inhibition of human Yap1 in A-431 cells (Example 8, 10,000 cells per well, RTS4814); type: cell-based; settings: for Yap1 mRNA, % UTC: A-431 cells, 10,000 cells per well; for pIC50 / % UTC (Yap1 mRNA): A-431 cells
How it was run: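 A-431 cells (10,000/well) dosed with modified oligonucleotides by free uptake; Yap1 mRNA measured ~48 h later with primer-probe set RTS4814, normalized to total RNA (RIBOGREEN). Values are % of untreated control; IC50 from linear regression on log/linear plot.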

[3] = Table 28, Yap1 mRNA as percent of untreated control, 3-10-3 cEt gapmers targeting SEQ ID NO.: 1, and 2
[4] = 31.3 nM, free uptake, approximately 48 hours, RTS4814
[5] = 125.0 nM, free uptake, approximately 48 hours, RTS4814
[6] = 500.0 nM, free uptake, approximately 48 hours, RTS4814
[7] = 2000.00 nM, free uptake, approximately 48 hours, RTS4814
[8] = free uptake, approximately 48 hours, RTS4814, linear regression on log/linear plot
[9] = Table 29, Yap1 mRNA as percent of untreated control, 3-10-3 cEt gapmers targeting SEQ ID NO.: 1, and 2
[10] = Table 35, Yap1 mRNA as percent of untreated control, 3-10-3 cEt gapmers targeting SEQ ID NO: 1 and 2, single dose

Substance | YAP1 (% UTC) (Yap1 mRNA [1]; [3]) | Yap1 mRNA, % UTC (Yap1 mRNA [2]; [4]) [% UTC] | Yap1 mRNA, % UTC (Yap1 mRNA [2]; [5]) [% UTC] | Yap1 mRNA, % UTC (Yap1 mRNA [2]; [6]) [% UTC] | Yap1 mRNA, % UTC (Yap1 mRNA [2]; [7]) [% UTC] | pIC50 (Yap1 mRNA [2]; [8]) | YAP1 (% UTC) (Yap1 mRNA [1]; [9]) | YAP1 (% UTC) (Yap1 mRNA [1]; Table 26, Yap1 mRNA by 3-10-3 cEt gapmers targeting SEQ ID NO.: 1, and 2, percent of untreated control) | YAP1 (% UTC) (Yap1 mRNA [1]; [10]) | % UTC (Yap1 mRNA) (Yap1 mRNA [2]; 31.3 nM) [% UTC] | % UTC (Yap1 mRNA) (Yap1 mRNA [2]; 125.0 nM) [% UTC] | % UTC (Yap1 mRNA) (Yap1 mRNA [2]; 500.0 nM) [% UTC] | % UTC (Yap1 mRNA) (Yap1 mRNA [2]; 2000.00 nM) [% UTC] | pIC50 (Yap1 mRNA [2]; Yap1 mRNA) | YAP1 (% UTC) (Yap1 mRNA [1]; Table 34, Yap1 mRNA as percent of untreated control, 3-10-3 cEt gapmers targeting SEQ ID NO: 1 and 2, single dose)
1074766 (kA*kT*k[5mC]*d[5mC]*d[5mC]*dA*dA*dT*dG*d[5mC]*dT*dA*d[5mC]*k[5mC]*k[5mC]*kA; antisense) [compound 1074766] | 8 | 72 | 32 | 14 | 7 | 7.00 |  |  |  |  |  |  |  |  | 
1075055 (antisense k[5mC]*kT*kA*dT*dT*dA*dA*dG*dT*dG*dA*dG*d[5mC]*kT*kT*kT) [compound 1075055] |  | 60 | 20 | 6 | 4 | 7.52 | 4 |  |  |  |  |  |  |  | 
1076524 (kA*kA*kT*dT*dT*dA*dT*dA*dT*d[5mC]*dA*dG*dG*kT*k[5mC]*kA; antisense) [compound 1076524] |  | 71 | 30 | 12 | 7 | 7.00 |  | 6 |  |  |  |  |  |  | 
1074318 (antisense kG*kG*kA*dG*dA*dA*dT*dT*dT*dG*d[5mC]*dT*dG*kT*kG*k[5mC]) [compound 1074318] | 4 | 48 | 12 | 6 | 4 | > 7.70 |  |  |  |  |  |  |  |  | 
1075893 (antisense k[5mC]*kG*kT*dG*dA*dA*dA*dA*dA*dG*dA*dT*dG*kT*kG*kG) [compound 1075893] |  |  |  |  |  |  |  |  | 7 | 80 | 29 | 11 | 8 | 7.00 | 
1074580 (DNA kA*k[5mC]*k[5mC]*dA*d[5mC]*dT*dA*dT*dA*dA*dA*dG*d[5mC]*kT*kT*kA; further chemistry not given here) [compound 1074580] |  |  |  |  |  |  |  |  |  | 55 | 18 | 8 | 5 | > 7.70 | 5
1075797 (kG*kA*kT*dA*dA*dT*d[5mC]*dA*dT*dG*dA*dT*dA*k[5mC]*kT*k[5mC]; antisense) [compound 1075797] |  |  |  |  |  |  |  |  | 3 | 43 | 11 | 4 | 3 | > 7.70 | 
1074222 (antisense kA*kG*kG*dA*dA*dT*dG*dA*dG*d[5mC]*dT*d[5mC]*dG*kA*kA*k[5mC]) [compound 1074222] | 5 | 59 | 21 | 8 | 5 | > 7.70 |  |  |  |  |  |  |  |  | 
1076527 (kG*k[5mC]*kA*d[5mC]*dA*dA*d[5mC]*d[5mC]*dT*dT*dA*d[5mC]*dA*kT*kT*kT; antisense) [compound 1076527] |  | 81 | 41 | 16 | 8 | 7.00 | 6 |  |  |  |  |  |  |  | 
1076494 (k[5mC]*kT*kA*dA*dT*dT*dG*dA*dA*dG*d[5mC]*dT*dG*kG*k[5mC]*kA; antisense) [compound 1076494] | 3 | 34 | 7 | 3 | 2 | > 7.70 |  |  |  |  |  |  |  |  | 
